Measurements published in patent publication US10822325B2, “Human GLUT5 specific inhibitors and methods of treatment” (UNM RAINFOREST INNOVATIONS, priority 2015, dated 2020).
“Also recorded” adds a separate entry of the source.

How the values were obtained:
[1] = target: T1, human GLUT2 (Homo sapiens, UniProt P11168); test: Glucose or fructose entrance counter-flow transport in GLUT2 proteoliposomes; assay type: biochemical; conditions: 2 mM compound
T1 construct: Full length DNA was subcloned into pFastBac1 (Life Technologies) vector with a N-terminal hexahistidine tag; hexahistidine (N); made in house; host or cells: Sf21 insect cells (baculovirus, pFastBac1)
T1 sequence (P11168 1-524): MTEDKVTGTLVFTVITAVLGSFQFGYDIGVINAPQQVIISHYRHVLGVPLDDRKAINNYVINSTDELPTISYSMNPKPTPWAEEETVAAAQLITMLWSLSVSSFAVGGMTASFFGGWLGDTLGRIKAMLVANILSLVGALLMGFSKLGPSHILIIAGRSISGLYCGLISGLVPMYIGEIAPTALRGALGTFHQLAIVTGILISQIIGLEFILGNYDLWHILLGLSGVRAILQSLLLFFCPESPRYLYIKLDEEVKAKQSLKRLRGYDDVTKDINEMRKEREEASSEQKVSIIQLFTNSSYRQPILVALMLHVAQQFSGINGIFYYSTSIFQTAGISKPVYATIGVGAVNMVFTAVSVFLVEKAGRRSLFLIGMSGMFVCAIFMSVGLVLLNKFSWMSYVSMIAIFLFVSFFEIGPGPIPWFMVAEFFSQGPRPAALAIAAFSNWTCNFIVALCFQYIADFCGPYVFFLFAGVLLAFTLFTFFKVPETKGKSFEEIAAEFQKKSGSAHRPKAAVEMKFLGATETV
Procedure: (§1) cDNAs of GLUT1, 3, 4 and 5 were purchased from Open Biosystems (GE Healthcare). cDNAs of GLUT2 was a gift from Prof. Graeme Bell at University of Chicago. Full length DNA was subcloned into pFastBac1 (Life Technologies) vector with a N-terminal hexahistidine tag. Bacmids were generated in DH10Bac E. coli cells (Life Technologies). Baculoviruses were produced using Cellfectin II Reagent and amplified in Sf21 insect cells (Life Technologies). Cells were maintained at 26° C., and P1 (10^6 pfu/mL) was collected from infected cells after 72 hours. SF21 cells were propagated in HyClone SFX-Insect media (GE Healthcare), supplemented with 5% fetal bovine serum (Biowest), 4.8 mM glutamine, antibiotics (100 units/mL Penicillin G and 100 μg/mL streptomycin sulfate) and amphotericin B (2.5 μg/mL). […]
(§2) For the entrance counterflow transport in proteoliposomes, the assay was started by the addition of 5 μL proteoliposomes solution (OD600 nm ˜30) to 200 μL, assay solution, containing 10 μM ^14C-radiolabeled glucose (for GLUT1 wild-type or F379H mutant and GLUT2-4) or fructose (for GLUT5 wild-type or H387F mutant and GLUT2) (Moravek Biochemicals) in 100 mM KPi buffer at pH 7.5. After one minute (or different specified time points when the time-dependent counter-flow transport activity was measured), the transport was stopped with ice-chilled quench buffer [0.1 M KPi (pH 5.5) and 0.1 M lithium chloride]. […]

[2] = target: T2, human GLUT4 (Homo sapiens, UniProt P14672); test: Glucose entrance counter-flow transport in GLUT4 proteoliposomes; assay type: biochemical; conditions: 2 mM compound
T2 construct: Full length DNA was subcloned into pFastBac1 (Life Technologies) vector with a N-terminal hexahistidine tag; hexahistidine (N); made in house; host or cells: Sf21 insect cells (baculovirus, pFastBac1)
T2 sequence (P14672 1-509): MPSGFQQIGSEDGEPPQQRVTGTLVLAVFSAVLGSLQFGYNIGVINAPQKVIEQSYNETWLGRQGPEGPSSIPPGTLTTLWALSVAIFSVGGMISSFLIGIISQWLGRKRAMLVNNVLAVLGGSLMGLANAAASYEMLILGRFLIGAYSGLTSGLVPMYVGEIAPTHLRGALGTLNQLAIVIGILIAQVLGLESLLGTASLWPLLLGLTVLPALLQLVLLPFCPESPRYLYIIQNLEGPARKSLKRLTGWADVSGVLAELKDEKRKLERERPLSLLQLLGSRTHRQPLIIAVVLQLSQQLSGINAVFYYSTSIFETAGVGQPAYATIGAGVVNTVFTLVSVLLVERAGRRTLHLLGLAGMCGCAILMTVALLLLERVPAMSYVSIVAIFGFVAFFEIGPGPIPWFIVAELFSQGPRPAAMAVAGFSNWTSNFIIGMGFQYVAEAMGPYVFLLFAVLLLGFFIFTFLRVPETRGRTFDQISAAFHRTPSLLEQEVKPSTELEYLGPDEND
Procedure: as §1, §2

CS(=O)(=O)c1ccc(Nc2ccc3c(c2)OCO3)c([N+](=O)[O-])c1 [MSNBA, N-[4-(methylsulfonyl)-2-nitrophenyl]-1,3-benzodioxol-5-amine]
effect on GLUT2 fructose transport ([1]; fructose as substrate): did not affect; also recorded: did not influence
effect on GLUT2 glucose transport ([1]; glucose as substrate): did not influence; also recorded: did not affect
effect on GLUT4 glucose transport [2]: did not affect; also recorded: did not influence
